# In ChEMBL document CHEMBL5579818, “Identification of 3-(9H-carbazol-9-yl)-2-(1,3-dioxoisoindolin-2-yl)propanoic acids as promising DNMT1 inhibitors” (Eur J Med Chem, 2024):
# Activity calls are given as the source filed them. The rule behind the calls is not given here.
# Key:
# [1] = target: T1, DNA (cytosine-5)-methyltransferase 1 (Homo sapiens, UniProt P26358); assay: Binding affinity to human DNMT1 expressed in Escherichia coli assessed as equilibrium dissociation constant by SPR analysis
# [2] = target: T1, DNA (cytosine-5)-methyltransferase 1; assay: Inhibition of DNMT1 (unknown origin) using semi-methylated DNA substrate preincubated for 15 mins followed by substrate and [3H-SAM] addition and measured after 60 mins by microbeta scintillation counting assay
# A2780 [3] = assay: Antiproliferative activity against human A2780 cells incubated for 48 hrs by MTT assay; format: functional, cell-based; conditions: A2780, 48 h
# HeLa [4] = assay: Antiproliferative activity against human HeLa cells incubated for 48 hrs by MTT assay; format: functional, cell-based
# K562 [5] = assay: Antiproliferative activity against human K562 cells incubated for 48 hrs by MTT assay; format: functional, cell-based; conditions: K562, 48 h
# SiHa [6] = assay: Antiproliferative activity against human SiHa cells incubated for 48 hrs by MTT assay; format: functional, cell-based
# [7] = target: T1, DNA (cytosine-5)-methyltransferase 1; assay: Inhibition of DNMT1 (unknown origin) at 250 uM using semi-methylated DNA substrate preincubated for 15 mins followed by substrate and [3H-SAM] addition and measured after 60 mins by microbeta scintillation counting assay relative to control; conditions: time 75.0 min
# A2780 [8] = assay: Antiproliferative activity against human A2780 cells at 100 uM incubated for 48 hrs by MTT assay; format: functional
# HeLa [9] = assay: Antiproliferative activity against human HeLa cells at 100 uM incubated for 48 hrs by MTT assay; format: functional
# K562 [10] = assay: Antiproliferative activity against human K562 cells at 100 uM incubated for 48 hrs by MTT assay; format: functional
# SiHa [11] = assay: Antiproliferative activity against human SiHa cells at 100 uM incubated for 48 hrs by MTT assay; format: functional
# [12] = target: T1, DNA (cytosine-5)-methyltransferase 1; assay: Binding affinity to human DNMT1 expressed in Escherichia coli assessed as response unit at 10 uM by SPR analysis
# [13] = target: T1, DNA (cytosine-5)-methyltransferase 1; assay: Inhibition of human DNMT1 at 500 uM relative to control
# [14] = target: T1, DNA (cytosine-5)-methyltransferase 1; assay: Binding affinity to human DNMT1 expressed in Escherichia coli assessed as binding constant by SPR analysis
# [15] = target: T1, DNA (cytosine-5)-methyltransferase 1; assay: Binding affinity to human DNMT1 in presence of 10 uM SAM by SPR analysis
# K562 [16] = assay: Upregulation of TRAIL-R2/Dr5 expression in human K562 cells; format: functional, cell-based
# K562 [17] = assay: Upregulation of TNFR-1 expression in human K562 cells; format: functional, cell-based
# K562 [18] = assay: Upregulation of CDKN1A/P21 expression in human K562 cells; format: functional, cell-based
# K562 [19] = assay: Induction of apoptosis in human K562 cells assessed as viable cells at 10 uM incubated for 48 hrs by Annexin-V/PI staining based flow cytometry assay (reference value: 92.12%); format: functional; conditions: read-out: Activity
# K562 [20] = assay: Induction of apoptosis in human K562 cells assessed as early apoptotic cells at 10 uM incubated for 48 hrs by Annexin-V/PI staining based flow cytometry assay (reference value: 3.18%); format: functional
# K562 [21] = assay: Induction of apoptosis in human K562 cells assessed as late apoptotic cells at 10 uM incubated for 48 hrs by Annexin-V/PI staining based flow cytometry assay (reference value: 3.73%); format: functional
# K562 [22] = assay: Induction of apoptosis in human K562 cells assessed as necrotic cells at 10 uM incubated for 48 hrs by Annexin-V/PI staining based flow cytometry assay (reference value: 0.34%); format: functional
# K562 [23] = assay: Induction of cell cycle arrest in human K562 cells assessed as G0-G1 phase cells at 10 uM incubated for 48 hrs by PI staining based flow cytometry assay (reference value: 33.58 to 35.82%); format: functional
# K562 [24] = assay: Induction of cell cycle arrest in human K562 cells assessed as S phase cells at 10 uM incubated for 48 hrs by PI staining based flow cytometry assay (reference value: 24.10 to 26.83%); format: functional
# K562 [25] = assay: Induction of cell cycle arrest in human K562 cells assessed as G2/M phase cells at 10 uM incubated for 48 hrs by PI staining based flow cytometry assay (reference value: 37.35 to 45.32%); format: functional
# K562 [26] = assay: Induction of cell cycle arrest in human K562 cells assessed as G0-G1 phase cells at 20 uM incubated for 48 hrs by PI staining based flow cytometry assay (reference value: 33.58 to 35.82%); format: functional
# K562 [27] = assay: Induction of cell cycle arrest in human K562 cells assessed as S phase cells at 20 uM incubated for 48 hrs by PI staining based flow cytometry assay (reference value: 24.10 to 26.83%); format: functional
# K562 [28] = assay: Induction of cell cycle arrest in human K562 cells assessed as G2/M phase cells at 20 uM incubated for 48 hrs by PI staining based flow cytometry assay (reference value: 37.35 to 45.32%); format: functional
# K562 [29] = assay: Induction of cell cycle arrest in human K562 cells assessed as G0-G1 phase cells at 40 uM incubated for 48 hrs by PI staining based flow cytometry assay (reference value: 33.58 to 35.82%); format: functional
# K562 [30] = assay: Induction of cell cycle arrest in human K562 cells assessed as S phase cells at 40 uM incubated for 48 hrs by PI staining based flow cytometry assay (reference value: 24.10 to 26.83%); format: functional
# K562 [31] = assay: Induction of cell cycle arrest in human K562 cells assessed as G2/M phase cells at 40 uM incubated for 48 hrs by PI staining based flow cytometry assay (reference value: 37.35 to 45.32%); format: functional
# K562 [32] = assay: Induction of apoptosis in human K562 cells assessed as viable cells at 20 uM incubated for 48 hrs by Annexin-V/PI staining based flow cytometry assay (reference value: 92.12%); format: functional; conditions: read-out: Activity
# K562 [33] = assay: Induction of apoptosis in human K562 cells assessed as early apoptotic cells at 20 uM incubated for 48 hrs by Annexin-V/PI staining based flow cytometry assay (reference value: 3.18%); format: functional
# K562 [34] = assay: Induction of apoptosis in human K562 cells assessed as late apoptotic cells at 20 uM incubated for 48 hrs by Annexin-V/PI staining based flow cytometry assay (reference value: 3.73%); format: functional
# K562 [35] = assay: Induction of apoptosis in human K562 cells assessed as necrotic cells at 20 uM incubated for 48 hrs by Annexin-V/PI staining based flow cytometry assay (reference value: 0.34%); format: functional
# K562 [36] = assay: Induction of apoptosis in human K562 cells assessed as viable cells at 40 uM incubated for 48 hrs by Annexin-V/PI staining based flow cytometry assay (reference value: 92.12%); format: functional; conditions: read-out: Activity
# K562 [37] = assay: Induction of apoptosis in human K562 cells assessed as early apoptotic cells at 40 uM incubated for 48 hrs by Annexin-V/PI staining based flow cytometry assay (reference value: 3.18%); format: functional
# K562 [38] = assay: Induction of apoptosis in human K562 cells assessed as late apoptotic cells at 40 uM incubated for 48 hrs by Annexin-V/PI staining based flow cytometry assay (reference value: 3.73%); format: functional
# K562 [39] = assay: Induction of apoptosis in human K562 cells assessed as necrotic cells at 40 uM incubated for 48 hrs by Annexin-V/PI staining based flow cytometry assay (reference value: 0.34%); format: functional
# T1 sequence (P26358 whole entry): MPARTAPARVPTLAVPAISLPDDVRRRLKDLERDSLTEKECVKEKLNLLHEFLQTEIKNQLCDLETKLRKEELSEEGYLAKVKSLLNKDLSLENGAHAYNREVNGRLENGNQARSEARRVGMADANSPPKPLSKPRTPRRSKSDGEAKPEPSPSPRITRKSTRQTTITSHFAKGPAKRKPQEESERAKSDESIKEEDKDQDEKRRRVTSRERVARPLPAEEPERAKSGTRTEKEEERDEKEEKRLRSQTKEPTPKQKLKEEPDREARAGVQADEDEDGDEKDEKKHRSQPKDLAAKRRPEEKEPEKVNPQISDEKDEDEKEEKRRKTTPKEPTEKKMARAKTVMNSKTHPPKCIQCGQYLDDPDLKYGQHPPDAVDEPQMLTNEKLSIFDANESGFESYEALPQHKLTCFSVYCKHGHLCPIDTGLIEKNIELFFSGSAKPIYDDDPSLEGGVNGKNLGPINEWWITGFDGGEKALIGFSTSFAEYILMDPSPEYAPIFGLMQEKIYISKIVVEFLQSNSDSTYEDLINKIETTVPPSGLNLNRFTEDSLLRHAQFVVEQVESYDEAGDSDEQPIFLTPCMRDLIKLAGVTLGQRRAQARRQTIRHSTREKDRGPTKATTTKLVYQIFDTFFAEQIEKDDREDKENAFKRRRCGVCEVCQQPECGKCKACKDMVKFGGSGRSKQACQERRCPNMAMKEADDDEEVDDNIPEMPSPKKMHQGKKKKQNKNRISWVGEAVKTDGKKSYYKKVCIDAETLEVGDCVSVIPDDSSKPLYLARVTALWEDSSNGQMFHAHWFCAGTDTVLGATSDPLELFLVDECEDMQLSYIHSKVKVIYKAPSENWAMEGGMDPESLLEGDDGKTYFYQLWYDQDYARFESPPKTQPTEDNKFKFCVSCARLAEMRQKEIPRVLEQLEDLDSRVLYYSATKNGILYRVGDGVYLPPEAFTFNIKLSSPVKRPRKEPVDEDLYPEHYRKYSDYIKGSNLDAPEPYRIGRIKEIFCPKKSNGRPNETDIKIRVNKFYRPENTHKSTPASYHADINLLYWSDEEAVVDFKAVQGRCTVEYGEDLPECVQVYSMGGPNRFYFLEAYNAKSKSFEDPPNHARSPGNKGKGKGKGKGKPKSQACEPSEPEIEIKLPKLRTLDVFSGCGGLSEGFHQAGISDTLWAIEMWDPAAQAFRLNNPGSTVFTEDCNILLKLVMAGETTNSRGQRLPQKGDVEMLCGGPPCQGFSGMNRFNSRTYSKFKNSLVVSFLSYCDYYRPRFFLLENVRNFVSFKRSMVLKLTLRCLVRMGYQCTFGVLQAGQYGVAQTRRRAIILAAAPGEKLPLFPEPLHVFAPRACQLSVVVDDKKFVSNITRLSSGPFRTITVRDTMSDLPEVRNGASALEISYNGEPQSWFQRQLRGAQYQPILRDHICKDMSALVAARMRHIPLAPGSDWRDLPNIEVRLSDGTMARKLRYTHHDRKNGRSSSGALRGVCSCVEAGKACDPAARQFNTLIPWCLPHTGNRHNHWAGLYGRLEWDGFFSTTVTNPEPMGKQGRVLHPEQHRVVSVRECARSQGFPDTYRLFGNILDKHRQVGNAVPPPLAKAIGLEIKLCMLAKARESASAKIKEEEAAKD
smiles,measurement,setting,value
CC(C)(C)c1ccc2c(c1)c1cc(C(C)(C)C)ccc1n2C[C@H](C(=O)O)N1C(=O)c2ccccc2C1=O,Kd,[1],0.666 µM
same,IC50,[2],17.3 µM
same,IC50,A2780 [3],34.6 µM
same,IC50,HeLa [4],59.9 µM
same,IC50,K562 [5],17 µM
same,IC50,SiHa [6],54.9 µM
O=C(O)C(Cn1c2ccccc2c2cc(OCC3CO3)ccc21)N1C(=O)c2ccccc2C1=O (racemic),inhibition,[7],< 50%
same,Activity,A2780 [8],<5%
same,Activity,HeLa [9],<5%
same,Activity,K562 [10],<5%
same,Activity,SiHa [11],<5%
O=C(O)C(Cn1c2ccc(I)cc2c2cc(I)ccc21)N1C(=O)c2ccccc2C1=O (stereo in doubt; 7o-2),IC50,[2],43 µM
O=C(O)C(Cn1c2ccc(Cl)cc2c2cc(Cl)ccc21)N1C(=O)c2ccccc2C1=O (racemic),Activity,[12],Active
same,inhibition,[7],> 75%
O=C(O)C(Cn1c2ccccc2c2ccccc21)N1C(=O)c2ccccc2C1=O (racemic),Activity,[12],25.1 RU
same,inhibition,[13],< 10%
same,inhibition,[7],< 50%
same,Activity,A2780 [8],<5%
same,Activity,HeLa [9],<5%
same,Activity,K562 [10],<5%
same,Activity,SiHa [11],<5%
Cc1ccc2c(c1)c1cc(C)ccc1n2CC(C(=O)O)N1C(=O)c2ccccc2C1=O (racemic),Activity,[12],Active
same,inhibition,[7],> 75%
O=C(O)C(Cn1c2cc(Br)ccc2c2ccc(Br)cc21)N1C(=O)c2ccccc2C1=O (racemic),Activity,[12],Active
same,inhibition,[7],> 75%
O=C(O)C(Cn1c2ccccc2c2cc(Br)ccc21)N1C(=O)c2ccccc2C1=O (racemic),inhibition,[7],< 50%
same,Activity,A2780 [8],<5%
same,Activity,HeLa [9],<5%
same,Activity,K562 [10],<5%
same,Activity,SiHa [11],<5%
O=C(O)C(Cn1c2ccc(Br)cc2c2cc(Br)ccc21)N1C(=O)c2ccccc2C1=O (stereo in doubt; 7n-2),IC50,[2],38.2 µM
O=C(O)C(Cn1c2ccccc2c2cc(I)ccc21)N1C(=O)c2ccccc2C1=O (racemic),inhibition,[7],< 50%
same,Activity,A2780 [8],<5%
same,Activity,HeLa [9],<5%
same,Activity,K562 [10],<5%
same,Activity,SiHa [11],<5%
O=C(O)C(Cn1c2ccc(I)cc2c2cc(I)ccc21)N1C(=O)c2ccccc2C1=O (racemic) [listing 1 of 2 here],Activity,[12],57.9 RU
same,Ka,[14],239000 M⁻¹ s⁻¹
same,inhibition,[7],> 75%
O=C(O)C(Cn1c2ccc(Br)cc2c2cc(Br)ccc21)N1C(=O)c2ccccc2C1=O (racemic) [listing 1 of 2 here],Kd,[1],1.16 µM
same,Kd,[15],4.09 µM
O=C(O)[C@@H](Cn1c2ccc(Cl)cc2c2cc(Cl)cc(Cl)c21)N1C(=O)c2ccccc2C1=O,Kd,[1],0.127 µM
same,IC50,[2],0.777 µM
same,IC50,A2780 [3],68.6 µM
same,IC50,HeLa [4],89 µM
same,IC50,K562 [5],44.4 µM
same,IC50,SiHa [6],83.2 µM
CC(C)(C)c1ccc2c(c1)c1cc(C(C)(C)C)ccc1n2CC(C(=O)O)N1C(=O)c2ccccc2C1=O (racemic),Activity,[12],52.7 RU
same,Kd,[1],0.841 µM
same,inhibition,[7],> 75%
same,Activity,A2780 [8],98%
same,Activity,HeLa [9],79%
same,Activity,K562 [10],99%
same,IC50,A2780 [3],36.6 µM
same,IC50,HeLa [4],60.5 µM
same,IC50,K562 [5],22.5 µM
same,IC50,SiHa [6],43.3 µM
CC(C)(C)c1ccc2c(c1)c1cc(C(C)(C)C)ccc1n2C[C@@H](C(=O)O)N1C(=O)c2ccccc2C1=O,Kd,[1],0.679 µM
same,IC50,[2],8.15 µM
same,IC50,A2780 [3],32.9 µM
same,IC50,HeLa [4],66.9 µM
same,IC50,K562 [5],15.8 µM
same,IC50,SiHa [6],25.6 µM
same,Activity,K562 [16],Active
same,Activity,K562 [17],Active
same,Activity,K562 [18],Active
same,viability at 10 µM,K562 [19],86.2%
same,Activity,K562 [20],1.39%
same,Activity,K562 [21],2.07%
same,Activity,K562 [22],0.37%
same,Activity,K562 [23],34.61%
same,Activity,K562 [24],26.12%
same,Activity,K562 [25],38.67%
same,Activity,K562 [26],54.77%
same,Activity,K562 [27],21.5%
same,Activity,K562 [28],23.67%
same,Activity,K562 [29],61.14%
same,Activity,K562 [30],22.3%
same,Activity,K562 [31],16.56%
same,viability at 20 µM,K562 [32],90.2%
same,Activity,K562 [33],2.78%
same,Activity,K562 [34],6.5%
same,Activity,K562 [35],0.56%
same,viability at 40 µM,K562 [36],3.07%
same,Activity,K562 [37],1.36%
same,Activity,K562 [38],94.09%
same,Activity,K562 [39],1.47%
O=C(O)C(Cn1c2ccc(Br)cc2c2cc(Br)ccc21)N1C(=O)c2ccccc2C1=O (racemic) [listing 2 of 2 here],Activity,[12],Active
same,Ka,[14],34000 M⁻¹ s⁻¹
same,inhibition,[7],> 75%
O=C(O)C(Cn1c2ccc(I)cc2c2cc(I)ccc21)N1C(=O)c2ccccc2C1=O (racemic) [listing 2 of 2 here],Kd,[1],0.145 µM
O=C(O)C(Cn1c2ccc(Cl)cc2c2cc(Cl)cc(Cl)c21)N1C(=O)c2ccccc2C1=O (racemic),Activity,[12],65.5 RU
same,Kd,[1],0.16 µM
same,inhibition,[7],> 75%
same,Activity,A2780 [8],59%
same,Activity,HeLa [9],52%
same,Activity,K562 [10],91%
same,IC50,A2780 [3],72.8 µM
same,IC50,HeLa [4],97.6 µM
same,IC50,K562 [5],45.8 µM
same,IC50,SiHa [6],78 µM
